Article PMC11665983, “Inhibition of CFTR-mediated intestinal chloride secretion by nornidulin: Cellular mechanisms and anti-secretory efficacy in human intestinal epithelial cells and human colonoids” (PLOS ONE, 2024)

Target: cystic fibrosis transmembrane conductance regulator (CFTR) (Homo sapiens, UniProt P13569)
Experiment: CPT-cAMP-stimulated apical chloride current in basolaterally permeabilized T84 monolayers (endogenous CFTR); genistein-stimulated current also inhibited (IC50 […])
Assay type: cell-based

cystic fibrosis transmembrane conductance regulator (CFTR), sequence (P13569 whole entry): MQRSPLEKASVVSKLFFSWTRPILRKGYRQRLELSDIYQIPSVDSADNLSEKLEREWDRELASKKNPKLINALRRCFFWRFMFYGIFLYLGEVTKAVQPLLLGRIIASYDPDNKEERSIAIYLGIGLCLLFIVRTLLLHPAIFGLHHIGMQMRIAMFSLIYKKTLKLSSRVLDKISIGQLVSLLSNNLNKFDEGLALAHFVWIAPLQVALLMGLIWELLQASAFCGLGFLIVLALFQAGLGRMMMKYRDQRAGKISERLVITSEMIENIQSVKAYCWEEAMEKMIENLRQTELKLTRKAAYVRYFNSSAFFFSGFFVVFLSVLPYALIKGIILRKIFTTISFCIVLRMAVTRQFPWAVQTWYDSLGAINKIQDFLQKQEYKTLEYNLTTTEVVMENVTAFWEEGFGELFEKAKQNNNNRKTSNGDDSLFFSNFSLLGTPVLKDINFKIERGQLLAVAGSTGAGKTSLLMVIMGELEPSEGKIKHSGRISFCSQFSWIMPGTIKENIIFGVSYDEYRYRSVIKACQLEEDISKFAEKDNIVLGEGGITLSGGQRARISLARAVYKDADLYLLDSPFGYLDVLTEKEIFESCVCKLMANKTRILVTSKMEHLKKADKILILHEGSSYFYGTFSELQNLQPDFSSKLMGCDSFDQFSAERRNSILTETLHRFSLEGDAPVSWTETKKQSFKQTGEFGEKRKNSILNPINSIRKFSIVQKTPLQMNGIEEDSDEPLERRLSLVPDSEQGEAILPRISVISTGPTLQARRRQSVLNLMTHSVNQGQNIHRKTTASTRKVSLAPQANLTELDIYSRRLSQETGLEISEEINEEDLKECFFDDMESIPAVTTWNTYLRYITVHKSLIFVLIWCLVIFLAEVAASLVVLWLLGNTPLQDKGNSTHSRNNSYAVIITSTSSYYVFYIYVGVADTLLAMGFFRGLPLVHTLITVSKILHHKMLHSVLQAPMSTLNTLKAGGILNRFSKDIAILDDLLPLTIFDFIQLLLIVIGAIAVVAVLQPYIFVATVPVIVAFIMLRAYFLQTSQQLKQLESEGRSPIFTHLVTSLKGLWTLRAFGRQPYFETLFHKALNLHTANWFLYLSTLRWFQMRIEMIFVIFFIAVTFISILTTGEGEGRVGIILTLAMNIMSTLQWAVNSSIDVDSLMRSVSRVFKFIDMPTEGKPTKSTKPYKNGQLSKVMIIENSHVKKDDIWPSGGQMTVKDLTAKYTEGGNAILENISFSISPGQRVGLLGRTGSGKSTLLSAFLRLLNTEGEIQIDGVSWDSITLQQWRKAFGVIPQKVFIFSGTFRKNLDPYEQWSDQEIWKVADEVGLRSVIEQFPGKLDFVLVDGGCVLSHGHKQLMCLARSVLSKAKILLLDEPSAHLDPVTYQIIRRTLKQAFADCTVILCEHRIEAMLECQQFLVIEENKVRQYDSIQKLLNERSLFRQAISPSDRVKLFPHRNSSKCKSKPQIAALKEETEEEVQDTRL

With C/C=C(\C)c1c(Cl)c(O)c(C)c2c1Oc1c(Cl)c(O)c(Cl)c(C)c1C(=O)O2 [N9, nornidulin] the IC50 was 1030 ± 130 nM.
